Source: article PMC7010297, “How the initiating ribosome copes with ppGpp to translate mRNAs” (PLoS Biology, 2020)
Several values for one entry are separate records, joined by “and”; a condition that tells them apart may be missing. Identical values can stand only once.

Legend:
IF2 = target: T1, IF2 (Escherichia coli, UniProt P0A705); test: IF2-Bpy-tRNAi-GNP ternary complex formation by MST; type: binding; conditions: S2A Fig
T1 construct: 6xHis (N); made in house
Protocol: Supplementary file pbio.3000593.s002.pdf: S2 Fig IF2-Bpy-tRNAi complex formation as a function of guanosine nucleotides. (A) IF2 concentration dependencies for Bpy-tRNAi binding in the presence of 0.5 mM of the indicated guanosine nucleotides to build IF2-tRNA-GNP ternary complexes (TCs). […] Three to five measurements were performed; mean and standard deviation are plotted (S1 Data). […] (PDF) Click here for additional data file.

IF2-bound 30S IC = target: T2, IF2-bound 30S IC (Escherichia coli, UniProt P0A705); test: 30S IC formation by MST, guanosine nucleotide titration; type: binding; conditions: Fig 2B;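 further: lower thermophoresis signal means Bpy-tRNAi dissociation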
T2 construct: 6xHis (N); made in house
T2 sequence (P0A705 whole entry, looked up): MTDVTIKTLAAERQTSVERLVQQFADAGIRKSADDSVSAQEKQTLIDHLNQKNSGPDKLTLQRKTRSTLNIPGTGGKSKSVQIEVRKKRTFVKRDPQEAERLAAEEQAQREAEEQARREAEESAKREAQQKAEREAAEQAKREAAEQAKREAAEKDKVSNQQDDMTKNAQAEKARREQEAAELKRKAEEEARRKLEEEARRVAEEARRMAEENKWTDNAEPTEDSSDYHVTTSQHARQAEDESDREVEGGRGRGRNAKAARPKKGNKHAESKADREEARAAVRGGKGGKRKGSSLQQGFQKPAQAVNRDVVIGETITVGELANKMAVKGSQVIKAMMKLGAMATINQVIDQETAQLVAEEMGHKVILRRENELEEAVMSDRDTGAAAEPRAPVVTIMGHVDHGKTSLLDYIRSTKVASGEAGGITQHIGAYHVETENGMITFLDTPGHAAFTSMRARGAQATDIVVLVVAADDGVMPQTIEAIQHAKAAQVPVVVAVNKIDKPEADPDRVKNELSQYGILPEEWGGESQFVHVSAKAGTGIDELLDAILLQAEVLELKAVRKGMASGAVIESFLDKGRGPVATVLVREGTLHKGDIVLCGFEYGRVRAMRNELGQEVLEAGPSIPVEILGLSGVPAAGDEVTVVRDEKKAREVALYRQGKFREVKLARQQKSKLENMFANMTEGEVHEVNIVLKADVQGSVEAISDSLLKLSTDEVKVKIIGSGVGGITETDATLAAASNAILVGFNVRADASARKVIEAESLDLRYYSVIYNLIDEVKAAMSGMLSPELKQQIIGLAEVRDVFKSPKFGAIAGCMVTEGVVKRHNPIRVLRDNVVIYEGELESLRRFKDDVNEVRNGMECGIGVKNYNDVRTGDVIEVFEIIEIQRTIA
Description: To monitor the interaction of initiator tRNA and 30S ribosomal subunits, we used Microscale Thermophoresis (MST) with a fluorescently labelled initiator tRNA (Bpy-tRNAi) (Fig 1B). MST allows to measure fluorescence in a constrained space. Changes on the readout derive from molecular drifts resulting from small thermal equilibrium perturbations. Upon equilibrium perturbations, the patterns of Bpy-tRNAi migration away from the observation space are related to bound and unbound states (Fig 1B). […] On the contrary, a decrease in thermophoresis indicated the dissociation of Bpy-tRNAi. The relation between fluorescence measured at both equilibriums (Ff to Fi, after and prior to the perturbation, respectively) as a function of ligand concentration allowed to determine dissociation constants of the interaction (Fig 1C).
Continuous lines indicate nonlinear regression fittings with a quadratic equation. Three measurements were performed; mean and standard deviation are plotted (S1 Data). (B) as (A) to measure the concentration dependence for each tested guanosine nucleotide at constant IF2 (1 μM). […] Continuous lines show best fits using exponential functions. (D) Formation of 70S IC as measured by Bpy-tRNAi accommodation in the P site of the ribosome; 0.1 μM 30S ICs were formed with Bpy-tRNAi and rapidly mixed with 0.3 μM 50S subunits on a stopped-flow apparatus as described in [14]. Colors are as in (C). Continuous lines show best fits using an exponential function for a single reaction step. Each stopped-flow trace results from the mean of 5 to 7 replicates.
MST was calculated from the respective fluorescence time dependencies (S3 Fig). […] Symbols as in (B). […] Continuous lines indicate nonlinear regression fittings with quadratic (B and E) or same-site competition (G) functions. Three measurements were performed; mean and standard deviations are plotted (S1 Data).

T1 sequence (P0A705 whole entry): as the sequence (P0A705 whole entry, looked up) above

In the case of Nc1nc2c(ncn2[C@@H]2O[C@H](COP(=O)(O)OP(=O)(O)OP(=O)(O)O)[C@@H](O)[C@H]2O)c(=O)[nH]1 [GTP, guanosine triphosphate], the “MST Average” value (IF2; IF2 0.08 µM) is reported as 945.53 a.u, the “MST Replicates” value (IF2; IF2 0.08 µM) is reported as 952.20 a.u. and 948.28 a.u. and 936.11 a.u and the “MST Average” value (IF2; IF2 0.16 µM) is reported as 947.39 a.u. For the same molecule, the “MST Replicates” value (IF2; IF2 0.16 µM) was 938.55 a.u. and 949.51 a.u. and 954.10 a.u, the “MST Average” value (IF2; IF2 0.31 µM) was 948.97 a.u and the “MST Replicates” value (IF2; IF2 0.31 µM) was 951.38 a.u. and 955.20 a.u. and 940.31 a.u. The “MST Average” value (IF2; IF2 0.63 µM) was 950.03 a.u, the “MST Replicates” value (IF2; IF2 0.63 µM) was 955.50 a.u. and 952.44 a.u. and 942.15 a.u and the “MST Average” value (IF2; IF2 2.50 µM) was 955.81 a.u. The “MST Replicates” value (IF2; IF2 2.50 µM) was 960.19 a.u. and 957.37 a.u. and 949.88 a.u, the “MST Average” value (IF2; IF2 5.00 µM) was 963.92 a.u and the “MST Replicates” value (IF2; IF2 5.00 µM) was 963.66 a.u. and 965.85 a.u. and 962.23 a.u. The “MST Average” value (IF2; IF2 10.00 µM) was 973.12 a.u, the “MST Replicates” value (IF2; IF2 10.00 µM) was 974.68 a.u. and 972.27 a.u. and 972.40 a.u and the “MST Average” value (IF2; IF2 20.00 µM) was 982.93 a.u. For the same molecule, the “MST Replicates” value (IF2; IF2 20.00 µM) was 983.50 a.u. and 982.36 a.u, the “MST Average” value (IF2; IF2 40.00 µM) was 989.70 a.u and the “MST Replicates” value (IF2; IF2 40.00 µM) was 993.21 a.u. and 991.95 a.u. and 983.94 a.u. The “MST Average” value (IF2-bound 30S IC; nucleotide 0.005 µM) was 931.90 a.u, the “MST Replicates (a.u.)” value (IF2-bound 30S IC; nucleotide 0.005 µM, constant IF2 (1 μM)) was 929.16 a.u. and 932.86 a.u. and 933.70 a.u and the “MST Average” value (IF2-bound 30S IC; nucleotide 0.01 µM) was 935.48 a.u. For the same molecule, the “MST Replicates (a.u.)” value (IF2-bound 30S IC; nucleotide 0.01 µM) was 935.39 a.u. and 935.49 a.u. and 935.55 a.u, the “MST Average” value (IF2-bound 30S IC; nucleotide 0.02 µM) was 931.90 a.u and the “MST Replicates (a.u.)” value (IF2-bound 30S IC; nucleotide 0.02 µM) was 930.17 a.u. and 932.09 a.u. and 933.42 a.u. For the same molecule, the “MST Average” value (IF2-bound 30S IC; nucleotide 0.04 µM) was 934.94 a.u, the “MST Replicates (a.u.)” value (IF2-bound 30S IC; nucleotide 0.04 µM) was 935.42 a.u. and 934.45 a.u. and 934.96 a.u and the “MST Average” value (IF2-bound 30S IC; nucleotide 0.08 µM) was 940.63 a.u. For the same molecule, the “MST Replicates (a.u.)” value (IF2-bound 30S IC; nucleotide 0.08 µM) was 937.42 a.u. and 941.79 a.u. and 942.68 a.u, the “MST Average” value (IF2-bound 30S IC; nucleotide 0.16 µM) was 949.92 a.u and the “MST Replicates (a.u.)” value (IF2-bound 30S IC; nucleotide 0.16 µM) was 950.95 a.u. and 949.65 a.u. and 949.17 a.u. The “MST Average” value (IF2-bound 30S IC; nucleotide 0.31 µM) was 960.63 a.u, the “MST Replicates (a.u.)” value (IF2-bound 30S IC; nucleotide 0.31 µM) was 959.49 a.u. and 961.54 a.u. and 960.87 a.u and the “MST Average” value (IF2-bound 30S IC; nucleotide 0.63 µM) was 975.44 a.u. For the same molecule, the “MST Replicates (a.u.)” value (IF2-bound 30S IC; nucleotide 0.63 µM) was 975.52 a.u. and 975.43 a.u. and 975.39 a.u, the “MST Average” value (IF2-bound 30S IC; nucleotide 1.25 µM) was 984.37 a.u and the “MST Replicates (a.u.)” value (IF2-bound 30S IC; nucleotide 1.25 µM) was 979.99 a.u. and 986.37 a.u. and 986.76 a.u. For the same molecule, the “MST Average” value (IF2-bound 30S IC; nucleotide 2.50 µM) was 1006.59 a.u, the “MST Replicates (a.u.)” value (IF2-bound 30S IC; nucleotide 2.50 µM) was 1003.01 a.u. and 1008.37 a.u. and 1008.39 a.u and the “MST Average” value (IF2-bound 30S IC; nucleotide 5.00 µM) was 1020.42 a.u. The “MST Replicates (a.u.)” value (IF2-bound 30S IC; nucleotide 5.00 µM) was 1016.52 a.u. and 1022.52 a.u. and 1022.21 a.u, the “MST Average” value (IF2-bound 30S IC; nucleotide 10.00 µM) was 1023.06 a.u and the “MST Replicates (a.u.)” value (IF2-bound 30S IC; nucleotide 10.00 µM) was 1019.11 a.u. and 1024.56 a.u. and 1025.50 a.u. For the same molecule, the “MST Average” value (IF2-bound 30S IC; nucleotide 20.00 µM) was 1004.40 a.u and the “MST Replicates (a.u.)” value (IF2-bound 30S IC; nucleotide 20.00 µM) was 999.60 a.u. and 1006.70 a.u. and 1006.89 a.u.
